Reference: patent publication US20230035127A1, “CULTURE AND DIFFERENTIATION OF PLURIPOTENT STEM CELLS” (University of Maryland, College Park, priority 2021, published 2023)
Several values for one entry are separate records, joined by “and”; a condition that tells them apart may be missing. Equal entries are not always repeated. Entries after “also recorded” stand apart in the source; their conditions may differ.

Assays:
eiPSCs = experiment: Survival/yield of PSCs in 3D suspension culture; assay type: cell-based, human; settings: for improvement of cell yield (number of viable cells): 3D culture
Method: (§1) To obtain 3D iPSC spheroids, the iPSC colonies under 2D culture at ˜80% confluence were treated with Versene for 2 min, rinsed with PBS, and further detached from the substrate by gentle pipetting. The detached iPSCs were re-suspended in mTeSR1 with Rock inhibitor (Y27632) at 0, 1, 5, or 10 μM. Afterward, the medium was supplemented with 0.35% (v/v) methylcellulose. The cell suspension (12 ml) containing ˜4×10^6 cells was pushed through a cell strainer with 100 μm mesh size. Later, the suspension of iPSC clumps was transferred into a petri dish (diameter: 10 cm) for culture in a humidified incubator at 37° C. and 5% CO2 for 2 days, during which the 2D iPSC clumps grew into 3D iPSC spheroids. Then, the medium was changed to mTeSR1 (supplemented with 0.35% methylcellulose) with no rock inhibitor, to further culture for 2 days before cardiac differentiation. To determine the number of cells per eiPSC spheroid, roughly equal numbers of the spheroids from either the 1 or 10 μM RI group were pooled together and trypsinized to dissociate the cells. The dissociated cells were then resuspended in 1.4 ml of the aforementioned iPSC maintenance medium and the cell number was counted using a hemocytometer. Three independent runs with 282, 260, and 256 spheroids for the 1 μM RI group and 273, 298, and 286 spheroids for the 10 μM RI group were conducted.

[1] = tested on: eiPSC-derived cardiac spheroids; experiment: Re-plating of cardiac spheroids in regular cell culture petri dish (attachment); assay type: cell-based, human; settings: day 13.5 spheroids, 3 days after re-plating
Method: After 3 days, ˜61% of the cardiac spheroids in the 10 μM RI group attached to the 2D surface, and some of the cells migrated out of the spheroids appeared to be neuron-like with neurite-like processes (FIG. 4B-C). […] To confirm the aforementioned observation of neuron-like cells in the 10 μM RI group, immunofluorescence staining of cryosectioned cardiac spheroids on day 12.5 in the 1 and 10 μM RI groups was conducted. […] Therefore, studies were performed to further understand the mechanisms of the improved cardiac differentiation with the reduced RI.

human eiPSCs = experiment: RNA sequencing of eiPSC spheroids and cardiac spheroids; assay type: cell-based; settings: MO vs. MT (1 vs 10 μM RI), day 13.5
Source text: To investigate the mechanisms for the different outcomes when using different RI concentrations for culturing the eiPSC spheroids in 3D for cardiac differentiation, samples at various stages of the 3D culture and differentiation shown in FIG. 1 were collected and analyzed by RNA-sequencing (RNA-seq). The sample groups and their abbreviations are summarized in Table 1 including undifferentiated eiPSCs on day −2.5 (U), cardiac commitment on day 2.5 (C), cardiac maturation on day 13.5 (M), together with 2D monolayer colonies on day −4 (2D) as a common 2D undifferentiated control for both the 1 (one: […]) and 10 (ten: T) μM RI 3D culture. The raw data of RAN-seq were of high quality with an error rate of no more than 0.03%. […] Afterward, the gene expression level was calculated by the number of mapped reads, also known as fragments per kilobase of transcript per million mapped reads (FPKM). […]
For RNA sequencing (RNA-Seq), total RNA was extracted from the eiPSC clumps from 2D culture on day −4 (termed as 2D) and spheroids collected on day −2.5 after 1.5 days in the 3D culture (termed as UO and UT for 1 μM and 10 μM RI conditions, respectively), day 2.5 (termed as CO and CT), and day 13.5 (termed as MO and MT). […] The RNA concentration in the samples was measured with Nanodrop and the integrity and quality of RNAs in the samples were confirmed with the Nano RNA Bioanalyzer. […]

IMR90-1 human iPSCs = experiment: 3D cardiac differentiation of IMR90-1 iPSCs: beating cardiac spheroids; assay type: cell-based; settings: for percentage of beating IMR90-1 cardiac spheroids: 10 μM RI
Method: Another commonly utilized iPSC line (IMR90-1) was tested to confirm that the improved cardiac differentiation of iPSCs with low RI for 3D culture before differentiation is not because of the eiPSCs used. The beating of the resultant IMR90-1 cardiac spheroids peaked at ˜98% on day 7.5 with the OBT being synchronized within ˜1 day for the 1 μM RI group (FIG. 19A). […] This was consistent with the flow cytometry data of the cells in the cardiac spheroids collected on day 12.5, showing that 91% and 32% of the cells were positive for the cardiac-specific protein cTnT (that are crucial for beating) in the 1 and 10 μM RI groups, respectively (FIG. 19B-C). Furthermore, cells in the cardiac spheroids that were positive for neural-specific maker MUSASHI were negligible in the 1 μM RI group, while ˜20% cells in the cardiac spheroids from the 10 μM RI group were MUSASHI positive (FIG. 19B-C).
as §1
The eiPSC spheroids obtained after 4 days of culture on day 0 were induced into mesoderm by up-regulation of the Wnt signaling pathway using 8 μM CHIR99021 and 2 μM GSK inhibitor 6-bromoindirubin-3′-oxime (BIO) in the mesoderm induction medium for 1 day. The mesoderm induction medium was a mixture of DMEM/F12 and α-MEM (v/v, 1:1), containing 2% Knockout Serum Replacement (KOSR), 1 mM L-glutamine, 1% MEM non-essential amino acids (NEAA), and 0.1 mM β-mercaptoethanol. […]

C[C@@H](N)[C@H]1CC[C@H](C(=O)Nc2ccncc2)CC1.Cl.Cl (relative stereo) [RI, (+)-(R)-trans-4-(1-aminoethyl)-N-(4-pyridyl) cyclo-hexanecarboxamide dihydrochloride]
cell survival and yield (eiPSCs; 1 μM RI compared to 0 μM RI control, day 0, dihydrochloride): significantly more; also recorded: significantly increases | improvement of cell yield (number of viable cells) (eiPSCs; 10 μM RI compared to 0 μM RI): about 3 times | improvement of cell yield (number of viable cells) (eiPSCs; 10 μM RI compared to 1 μM RI): ~2 times | percentage of cardiac spheroids attached to the 2D surface ([1]; 5 μM RI): ~41% | percentage of cardiac spheroids attached to the 2D surface ([1]; 10 μM RI, dihydrochloride): ~61% and > 60% | top 2 significantly down-regulated differentially expressed gene groups (GO enrichment) (human eiPSCs): enriched to the forebrain and axon development | top 18 significantly upregulated differentially expressed gene groups (GO enrichment) (human eiPSCs): enriched to heart development, muscle system process, and the development of Z-disc and I band | outset beating time (OBT) synchronized within (IMR90-1 human iPSCs; 1 μM RI): ≤ 1 days | time within which cardiac spheroids start to beat (IMR90-1 human iPSCs; 1 μM RI): ≤ 24 h | percentage of beating IMR90-1 cardiac spheroids (IMR90-1 human iPSCs; day 7.5): 11.5% | percentage of beating IMR90-1 cardiac spheroids (IMR90-1 human iPSCs; in a week, day 13.5): 34.1%
